In ChEMBL document CHEMBL5316329, “Structure-Based Optimization of 2,4,5-Trisubstituted Pyrimidines as Potent HIV-1 Non-Nucleoside Reverse Transcriptase Inhibitors: Exploiting the Tolerant Regions of the Non-Nucleoside Reverse Transcriptase Inhibitors' Binding Pocket” (J Med Chem, 2023):

System: Human immunodeficiency virus 1
Assay: Antiviral activity against wild-type HIV-1 IIIB infected in human MT4 cells assessed as virus-induced cytopathicity treated for 5 days by MTT assay
Assay type: functional, organism-based
Settings: Human immunodeficiency virus 1, IIIB, MT4, 120 h

Row | Structure (SMILES) | EC50
1 | Cc1cc(/C=C/C#N)cc(C)c1Oc1nc(NC2CCN(Cc3ccc(C(N)=O)cc3)CC2)ncc1-c1ccccc1N | 4.4 nM
2 | Cc1cc(/C=C/C#N)cc(C)c1Oc1nc(NC2CCN(Cc3ccc(S(N)(=O)=O)cc3)CC2)ncc1-c1cccc(N)c1 | 6.16 nM
3 | Cc1cc(/C=C/C#N)cc(C)c1Oc1nc(NC2CCN(Cc3ccc(S(C)(=O)=O)cc3)CC2)ncc1-c1ccccc1O | 9.04 nM
4 | Cc1cc(/C=C/C#N)cc(C)c1Oc1nc(NC2CCN(Cc3ccc(S(N)(=O)=O)cc3)CC2)ncc1-c1cccc(O)c1 | 6.32 nM
5 | Cc1cc(/C=C/C#N)cc(C)c1Oc1nc(NC2CCN(Cc3ccc(S(N)(=O)=O)cc3)CC2)ncc1-c1ccc(N)cc1 | 3.64 nM

System: Human immunodeficiency virus 1
Assay: Antiviral activity against NNRTI-resistant HIV-1 RES056 infected in human MT4 cells assessed as virus-induced cytopathicity treated for 5 days by MTT assay
Assay type: functional, organism-based
Settings: Human immunodeficiency virus 1, RES056, MT4, 120 h

Row | Structure (SMILES) | EC50
6 | Cc1cc(C#N)cc(C)c1Oc1nc(Nc2ccc(C#N)cc2)nc(N)c1Br [ETRAVIRINE] | 52.2 nM
7 | Cc1cc(/C=C/C#N)cc(C)c1Oc1nc(NC2CCN(Cc3ccc(C(N)=O)cc3)CC2)ncc1-c1ccccc1N | 49.3 nM
8 | Cc1cc(/C=C/C#N)cc(C)c1Oc1nc(NC2CCN(Cc3ccc(S(N)(=O)=O)cc3)CC2)ncc1-c1cccc(N)c1 | 25.8 nM
9 | Cc1cc(/C=C/C#N)cc(C)c1Oc1nc(NC2CCN(Cc3ccc(S(C)(=O)=O)cc3)CC2)ncc1-c1ccccc1O | 376 nM
10 | Cc1cc(/C=C/C#N)cc(C)c1Oc1nc(NC2CCN(Cc3ccc(S(N)(=O)=O)cc3)CC2)ncc1-c1cccc(O)c1 | 36.1 nM
11 | Cc1cc(/C=C/C#N)cc(C)c1Oc1nc(NC2CCN(Cc3ccc(S(N)(=O)=O)cc3)CC2)ncc1-c1ccc(N)cc1 | 23.4 nM

System: not listed separately
Assay: Cytotoxicity against human MT4 cells assessed as reduction in cell viability treated for 5 days by MTT assay
Assay type: toxicity, cell-based
Settings: time 5 day

Row | Structure (SMILES) | CC50 at 120 h
12 | Cc1cc(C#N)cc(C)c1Oc1nc(Nc2ccc(C#N)cc2)nc(N)c1Br [ETRAVIRINE] | > 4590 nM
13 | Cc1cc(/C=C/C#N)cc(C)c1Oc1nc(NC2CCN(Cc3ccc(C(N)=O)cc3)CC2)ncc1-c1ccccc1N | 11700 nM
14 | Cc1cc(/C=C/C#N)cc(C)c1Oc1nc(NC2CCN(Cc3ccc(S(N)(=O)=O)cc3)CC2)ncc1-c1cccc(N)c1 | 6940 nM
15 | Cc1cc(/C=C/C#N)cc(C)c1Oc1nc(NC2CCN(Cc3ccc(S(C)(=O)=O)cc3)CC2)ncc1-c1ccccc1O | 6730 nM
16 | Cc1cc(/C=C/C#N)cc(C)c1Oc1nc(NC2CCN(Cc3ccc(S(N)(=O)=O)cc3)CC2)ncc1-c1cccc(O)c1 | 7850 nM
17 | Cc1cc(/C=C/C#N)cc(C)c1Oc1nc(NC2CCN(Cc3ccc(S(N)(=O)=O)cc3)CC2)ncc1-c1ccc(N)cc1 | 3810 nM

System: not listed separately
Assay: Selectivity index, ratio of CC50 for human MT4 cells to EC50 for wild-type HIV-1 IIIB infected in human MT4 cells
Assay type: toxicity, cell-based
Settings: read-out: Selectivity Index

Row | Structure (SMILES) | selectivity ratio
18 | Cc1cc(/C=C/C#N)cc(C)c1Oc1nc(NC2CCN(Cc3ccc(C(N)=O)cc3)CC2)ncc1-c1ccccc1N | 2680
19 | Cc1cc(/C=C/C#N)cc(C)c1Oc1nc(NC2CCN(Cc3ccc(S(N)(=O)=O)cc3)CC2)ncc1-c1cccc(N)c1 | 1130
20 | Cc1cc(/C=C/C#N)cc(C)c1Oc1nc(NC2CCN(Cc3ccc(S(C)(=O)=O)cc3)CC2)ncc1-c1ccccc1O | 745
21 | Cc1cc(/C=C/C#N)cc(C)c1Oc1nc(NC2CCN(Cc3ccc(S(N)(=O)=O)cc3)CC2)ncc1-c1cccc(O)c1 | 1240
22 | Cc1cc(/C=C/C#N)cc(C)c1Oc1nc(NC2CCN(Cc3ccc(S(N)(=O)=O)cc3)CC2)ncc1-c1ccc(N)cc1 | 1050

System: not listed separately
Assay: Selectivity index, ratio of CC50 for human MT4 cells to EC50 for NNRTI-resistant HIV-1 RES056 infected in human MT4 cells
Assay type: toxicity, cell-based
Settings: read-out: Selectivity Index

Row | Structure (SMILES) | selectivity ratio
23 | Cc1cc(/C=C/C#N)cc(C)c1Oc1nc(NC2CCN(Cc3ccc(C(N)=O)cc3)CC2)ncc1-c1ccccc1N | 239
24 | Cc1cc(/C=C/C#N)cc(C)c1Oc1nc(NC2CCN(Cc3ccc(S(N)(=O)=O)cc3)CC2)ncc1-c1cccc(N)c1 | 269
25 | Cc1cc(/C=C/C#N)cc(C)c1Oc1nc(NC2CCN(Cc3ccc(S(C)(=O)=O)cc3)CC2)ncc1-c1ccccc1O | 18
26 | Cc1cc(/C=C/C#N)cc(C)c1Oc1nc(NC2CCN(Cc3ccc(S(N)(=O)=O)cc3)CC2)ncc1-c1cccc(O)c1 | 215
27 | Cc1cc(/C=C/C#N)cc(C)c1Oc1nc(NC2CCN(Cc3ccc(S(N)(=O)=O)cc3)CC2)ncc1-c1ccc(N)cc1 | 185

Target: Human immunodeficiency virus type 1 reverse transcriptase (Human immunodeficiency virus 1, UniProt Q72547)
Assay: Inhibition of wild-type HIV-1 reverse transcriptase assessed as inhibition of biotin-dUTP incorporation
Settings: not given

Row | Structure (SMILES) | IC50
28 | Cc1cc(/C=C/C#N)cc(C)c1Oc1nc(NC2CCN(Cc3ccc(C(N)=O)cc3)CC2)ncc1-c1ccccc1N | 122 nM
29 | Cc1cc(/C=C/C#N)cc(C)c1Oc1nc(NC2CCN(Cc3ccc(S(N)(=O)=O)cc3)CC2)ncc1-c1cccc(N)c1 | 134 nM
30 | Cc1cc(/C=C/C#N)cc(C)c1Oc1nc(NC2CCN(Cc3ccc(S(C)(=O)=O)cc3)CC2)ncc1-c1ccccc1O | 328 nM
31 | Cc1cc(/C=C/C#N)cc(C)c1Oc1nc(NC2CCN(Cc3ccc(S(N)(=O)=O)cc3)CC2)ncc1-c1cccc(O)c1 | 115 nM
32 | Cc1cc(/C=C/C#N)cc(C)c1Oc1nc(NC2CCN(Cc3ccc(S(N)(=O)=O)cc3)CC2)ncc1-c1ccc(N)cc1 | 97 nM

System: Human immunodeficiency virus 1
Assay: Antiviral activity against HIV-1 harboring L100I mutant infected in human MT4 cells assessed as virus-induced cytopathicity treated for 5 days by MTT assay
Assay type: functional, organism-based
Settings: Human immunodeficiency virus 1, MT4, 120 h; read-out: EC50

Row | Structure (SMILES) | EC50
33 | Cc1cc(C#N)cc(C)c1Oc1nc(Nc2ccc(C#N)cc2)nc(N)c1Br [ETRAVIRINE] | 11.7 nM
34 | Cc1cc(/C=C/C#N)cc(C)c1Oc1nc(NC2CCN(Cc3ccc(S(N)(=O)=O)cc3)CC2)ncc1-c1cccc(N)c1 | 7.05 nM
35 | Cc1cc(/C=C/C#N)cc(C)c1Oc1nc(NC2CCN(Cc3ccc(S(N)(=O)=O)cc3)CC2)ncc1-c1cccc(O)c1 | 11.6 nM
36 | Cc1cc(/C=C/C#N)cc(C)c1Oc1nc(NC2CCN(Cc3ccc(S(N)(=O)=O)cc3)CC2)ncc1-c1ccc(N)cc1 | 3.23 nM

Same assay, conditions: Human immunodeficiency virus 1, MT4, 120 h; read-out: pEC50 (converted)

Row | Structure (SMILES) | EC50
37 | Cc1cc(C#N)cc(C)c1Oc1nc(Nc2ccc(C#N)cc2)nc(N)c1Br [ETRAVIRINE] | 11.7 nM

System: Human immunodeficiency virus 1
Assay: Antiviral activity against HIV-1 harboring K103N mutant infected in human MT4 cells assessed as virus-induced cytopathicity treated for 5 days by MTT assay
Assay type: functional, organism-based
Settings: Human immunodeficiency virus 1, MT4, 120 h; read-out: EC50

Row | Structure (SMILES) | EC50
38 | Cc1cc(/C=C/C#N)cc(C)c1Oc1nc(NC2CCN(Cc3ccc(S(N)(=O)=O)cc3)CC2)ncc1-c1cccc(N)c1 | 6.11 nM
39 | Cc1cc(/C=C/C#N)cc(C)c1Oc1nc(NC2CCN(Cc3ccc(S(N)(=O)=O)cc3)CC2)ncc1-c1cccc(O)c1 | 5.61 nM
40 | Cc1cc(/C=C/C#N)cc(C)c1Oc1nc(NC2CCN(Cc3ccc(S(N)(=O)=O)cc3)CC2)ncc1-c1ccc(N)cc1 | 3.85 nM

System: Human immunodeficiency virus 1
Assay: Antiviral activity against HIV-1 harboring Y181C mutant infected in human MT4 cells assessed as virus-induced cytopathicity treated for 5 days by MTT assay
Assay type: functional, organism-based
Settings: Human immunodeficiency virus 1, MT4, 120 h; read-out: EC50

Row | Structure (SMILES) | EC50
41 | Cc1cc(C#N)cc(C)c1Oc1nc(Nc2ccc(C#N)cc2)nc(N)c1Br [ETRAVIRINE] | 16.6 nM
42 | Cc1cc(/C=C/C#N)cc(C)c1Oc1nc(NC2CCN(Cc3ccc(S(N)(=O)=O)cc3)CC2)ncc1-c1cccc(N)c1 | 103 nM
43 | Cc1cc(/C=C/C#N)cc(C)c1Oc1nc(NC2CCN(Cc3ccc(S(N)(=O)=O)cc3)CC2)ncc1-c1cccc(O)c1 | 16 nM
44 | Cc1cc(/C=C/C#N)cc(C)c1Oc1nc(NC2CCN(Cc3ccc(S(N)(=O)=O)cc3)CC2)ncc1-c1ccc(N)cc1 | 5.37 nM

Same assay, conditions: Human immunodeficiency virus 1, MT4, 120 h; read-out: pEC50 (converted)

Row | Structure (SMILES) | EC50
45 | Cc1cc(C#N)cc(C)c1Oc1nc(Nc2ccc(C#N)cc2)nc(N)c1Br [ETRAVIRINE] | 17 nM

System: Human immunodeficiency virus 1
Assay: Antiviral activity against HIV-1 harboring Y188L mutant infected in human MT4 cells assessed as virus-induced cytopathicity treated for 5 days by MTT assay
Assay type: functional, organism-based
Settings: Human immunodeficiency virus 1, MT4, 120 h; read-out: EC50

Row | Structure (SMILES) | EC50
46 | Cc1cc(/C=C/C#N)cc(C)c1Oc1nc(NC2CCN(Cc3ccc(S(N)(=O)=O)cc3)CC2)ncc1-c1cccc(N)c1 | 46.5 nM
47 | Cc1cc(/C=C/C#N)cc(C)c1Oc1nc(NC2CCN(Cc3ccc(S(N)(=O)=O)cc3)CC2)ncc1-c1cccc(O)c1 | 33 nM
48 | Cc1cc(/C=C/C#N)cc(C)c1Oc1nc(NC2CCN(Cc3ccc(S(N)(=O)=O)cc3)CC2)ncc1-c1ccc(N)cc1 | 24.9 nM

System: Human immunodeficiency virus 1
Assay: Antiviral activity against HIV-1 E138K mutant infected in human MT4 cells assessed as virus-induced cytopathicity treated for 5 days by MTT assay
Assay type: functional, organism-based
Settings: Human immunodeficiency virus 1, MT4, 120 h; read-out: EC50

Row | Structure (SMILES) | EC50
49 | Cc1cc(/C=C/C#N)cc(C)c1Oc1nc(NC2CCN(Cc3ccc(S(N)(=O)=O)cc3)CC2)ncc1-c1cccc(N)c1 | 11.2 nM
50 | Cc1cc(/C=C/C#N)cc(C)c1Oc1nc(NC2CCN(Cc3ccc(S(N)(=O)=O)cc3)CC2)ncc1-c1cccc(O)c1 | 18.5 nM
51 | Cc1cc(/C=C/C#N)cc(C)c1Oc1nc(NC2CCN(Cc3ccc(S(N)(=O)=O)cc3)CC2)ncc1-c1ccc(N)cc1 | 8.93 nM

System: Human immunodeficiency virus 1
Assay: Antiviral activity against HIV-1 F227L/V106A mutant infected in human MT4 cells assessed as virus-induced cytopathicity treated for 5 days by MTT assay
Assay type: functional, organism-based
Settings: Human immunodeficiency virus 1, MT4, 120 h; read-out: EC50

Row | Structure (SMILES) | EC50
52 | Cc1cc(/C=C/C#N)cc(C)c1Oc1nc(NC2CCN(Cc3ccc(S(N)(=O)=O)cc3)CC2)ncc1-c1cccc(N)c1 | 11.4 nM
53 | Cc1cc(/C=C/C#N)cc(C)c1Oc1nc(NC2CCN(Cc3ccc(S(N)(=O)=O)cc3)CC2)ncc1-c1cccc(O)c1 | 25 nM
54 | Cc1cc(/C=C/C#N)cc(C)c1Oc1nc(NC2CCN(Cc3ccc(S(N)(=O)=O)cc3)CC2)ncc1-c1ccc(N)cc1 | 9.02 nM
